Consider one compound from US10766902B2, “Wee-1 inhibiting pyrazolopyrimidinone compounds” (ALMAC DISCOVERY LIMITED, priority 2016, dated 2020).

Common to all, as to assay type: biochemical
Settings in all cases: tested at 300-350 nM

One experiment addresses ABL1 (Homo sapiens (Human), UniProt P00519). Nature of the experiment: SelectScreen Kinase Profiling: ABL1. The text has this:
(§1) Table 4 below highlights the selectivity of a representative compound of the invention, Example 5, against a panel of 50 kinases (assessed using the Invitrogen SelectScreen® Kinase Profiling Service).

In the next experiment the target is ERBB2 (HER2) (Homo sapiens (Human), UniProt P04626). Nature of the experiment: SelectScreen Kinase Profiling: ERBB2 (HER2).
ERBB2 (HER2), sequence (P04626 23-1255): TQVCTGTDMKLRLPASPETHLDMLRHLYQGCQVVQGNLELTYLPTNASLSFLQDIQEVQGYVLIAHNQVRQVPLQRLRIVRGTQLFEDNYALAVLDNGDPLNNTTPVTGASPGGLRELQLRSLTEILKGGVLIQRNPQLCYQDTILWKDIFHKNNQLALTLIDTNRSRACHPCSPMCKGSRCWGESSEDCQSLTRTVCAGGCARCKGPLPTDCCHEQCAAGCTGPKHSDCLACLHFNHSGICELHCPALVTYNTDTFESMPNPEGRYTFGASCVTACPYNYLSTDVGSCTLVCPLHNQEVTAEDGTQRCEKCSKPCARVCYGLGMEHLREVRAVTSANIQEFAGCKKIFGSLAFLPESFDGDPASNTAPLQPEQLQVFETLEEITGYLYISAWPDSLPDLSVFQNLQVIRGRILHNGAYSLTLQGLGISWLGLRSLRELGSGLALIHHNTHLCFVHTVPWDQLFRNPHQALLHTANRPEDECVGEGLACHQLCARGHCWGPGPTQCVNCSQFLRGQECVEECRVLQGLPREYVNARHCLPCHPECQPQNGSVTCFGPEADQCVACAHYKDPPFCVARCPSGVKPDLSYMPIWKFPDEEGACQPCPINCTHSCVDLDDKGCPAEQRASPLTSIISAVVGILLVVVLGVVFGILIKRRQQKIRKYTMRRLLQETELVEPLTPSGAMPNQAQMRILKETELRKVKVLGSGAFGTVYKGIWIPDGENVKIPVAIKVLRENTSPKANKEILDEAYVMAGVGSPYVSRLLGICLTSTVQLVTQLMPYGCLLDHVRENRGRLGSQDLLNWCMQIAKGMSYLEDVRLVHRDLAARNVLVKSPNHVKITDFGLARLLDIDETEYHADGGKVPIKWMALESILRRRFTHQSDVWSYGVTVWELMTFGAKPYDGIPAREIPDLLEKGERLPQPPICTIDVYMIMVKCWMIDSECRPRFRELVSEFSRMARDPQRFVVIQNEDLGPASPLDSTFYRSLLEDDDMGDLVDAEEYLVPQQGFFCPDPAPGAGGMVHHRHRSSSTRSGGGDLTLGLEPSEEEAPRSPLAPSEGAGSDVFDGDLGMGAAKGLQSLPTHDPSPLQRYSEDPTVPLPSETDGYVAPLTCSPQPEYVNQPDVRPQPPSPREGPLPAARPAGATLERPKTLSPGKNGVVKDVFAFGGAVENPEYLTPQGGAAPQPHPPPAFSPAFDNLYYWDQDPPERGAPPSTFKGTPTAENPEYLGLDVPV
From the text: as §1

For the next experiment, the target named is FRAP1 (mTOR) (Homo sapiens (Human), UniProt P42345). Nature of the experiment: SelectScreen Kinase Profiling: FRAP1 (mTOR).
From the text: as §1

A further experiment addresses KDR (VEGFR2) (Homo sapiens (Human), UniProt P35968). Nature of the experiment: SelectScreen Kinase Profiling: KDR (VEGFR2).
From the text: as §1

For another experiment, the target named is LCK (Homo sapiens (Human), UniProt P06239). Nature of the experiment: SelectScreen Kinase Profiling: LCK.
LCK, sequence (P06239 whole entry): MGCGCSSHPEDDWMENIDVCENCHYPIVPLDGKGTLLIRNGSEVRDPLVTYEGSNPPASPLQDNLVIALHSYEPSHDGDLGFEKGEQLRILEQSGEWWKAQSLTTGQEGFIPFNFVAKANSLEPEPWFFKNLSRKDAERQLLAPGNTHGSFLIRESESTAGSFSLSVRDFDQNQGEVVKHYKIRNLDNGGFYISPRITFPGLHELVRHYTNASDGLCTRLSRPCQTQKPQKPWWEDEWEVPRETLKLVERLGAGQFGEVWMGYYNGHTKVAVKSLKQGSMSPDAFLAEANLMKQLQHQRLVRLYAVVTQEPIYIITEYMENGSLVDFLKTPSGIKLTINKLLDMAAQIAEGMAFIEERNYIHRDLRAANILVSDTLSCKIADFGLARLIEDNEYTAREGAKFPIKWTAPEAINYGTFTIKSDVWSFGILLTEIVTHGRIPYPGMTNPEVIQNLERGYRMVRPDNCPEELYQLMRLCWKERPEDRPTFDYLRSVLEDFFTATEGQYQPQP
In another experiment the target is MAPK8 (JNK1) (Homo sapiens (Human), UniProt P45983). Nature of the experiment: SelectScreen Kinase Profiling: MAPK8 (JNK1).
From the text: as §1

The target in a further experiment is MAPKAPK2 (Homo sapiens (Human), UniProt P49137). Description: SelectScreen Kinase Profiling: MAPKAPK2.
MAPKAPK2, sequence (P49137 whole entry): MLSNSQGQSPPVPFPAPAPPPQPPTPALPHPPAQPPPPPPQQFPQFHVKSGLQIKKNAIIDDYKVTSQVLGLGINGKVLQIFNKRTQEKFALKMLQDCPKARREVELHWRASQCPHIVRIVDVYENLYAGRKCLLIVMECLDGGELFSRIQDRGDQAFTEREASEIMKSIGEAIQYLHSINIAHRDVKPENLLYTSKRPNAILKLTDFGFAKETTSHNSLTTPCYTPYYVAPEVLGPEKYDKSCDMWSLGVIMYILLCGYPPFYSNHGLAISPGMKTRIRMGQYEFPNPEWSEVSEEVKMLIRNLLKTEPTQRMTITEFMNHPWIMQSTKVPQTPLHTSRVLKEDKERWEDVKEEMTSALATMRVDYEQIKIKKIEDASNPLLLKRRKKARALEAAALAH
From the text: as §1

Another experiment deals with MARK2 (Homo sapiens (Human), UniProt Q7KZI7). Description: SelectScreen Kinase Profiling: MARK2.
From the text: as §1

Another experiment concerns the target PAK4 (Homo sapiens (Human), UniProt O96013). Nature of the experiment: SelectScreen Kinase Profiling: PAK4.
From the text: as §1

For the next experiment, the target named is PRKACA (PKA) (Homo sapiens (Human), UniProt P17612). Description: SelectScreen Kinase Profiling: PRKACA (PKA).
From the text: as §1

The target of another experiment is ROCK1 (Homo sapiens (Human), UniProt Q13464). Nature of the experiment: SelectScreen Kinase Profiling: ROCK1.
From the text: as §1

Another experiment addresses SRC (Homo sapiens (Human), UniProt P12931). Description: SelectScreen Kinase Profiling: SRC.
From the text: as §1

In a further experiment the target is TEK (Tie2) (Homo sapiens (Human), UniProt Q02763). Nature of the experiment: SelectScreen Kinase Profiling: TEK (Tie2).
TEK (Tie2), sequence (Q02763 23-1124): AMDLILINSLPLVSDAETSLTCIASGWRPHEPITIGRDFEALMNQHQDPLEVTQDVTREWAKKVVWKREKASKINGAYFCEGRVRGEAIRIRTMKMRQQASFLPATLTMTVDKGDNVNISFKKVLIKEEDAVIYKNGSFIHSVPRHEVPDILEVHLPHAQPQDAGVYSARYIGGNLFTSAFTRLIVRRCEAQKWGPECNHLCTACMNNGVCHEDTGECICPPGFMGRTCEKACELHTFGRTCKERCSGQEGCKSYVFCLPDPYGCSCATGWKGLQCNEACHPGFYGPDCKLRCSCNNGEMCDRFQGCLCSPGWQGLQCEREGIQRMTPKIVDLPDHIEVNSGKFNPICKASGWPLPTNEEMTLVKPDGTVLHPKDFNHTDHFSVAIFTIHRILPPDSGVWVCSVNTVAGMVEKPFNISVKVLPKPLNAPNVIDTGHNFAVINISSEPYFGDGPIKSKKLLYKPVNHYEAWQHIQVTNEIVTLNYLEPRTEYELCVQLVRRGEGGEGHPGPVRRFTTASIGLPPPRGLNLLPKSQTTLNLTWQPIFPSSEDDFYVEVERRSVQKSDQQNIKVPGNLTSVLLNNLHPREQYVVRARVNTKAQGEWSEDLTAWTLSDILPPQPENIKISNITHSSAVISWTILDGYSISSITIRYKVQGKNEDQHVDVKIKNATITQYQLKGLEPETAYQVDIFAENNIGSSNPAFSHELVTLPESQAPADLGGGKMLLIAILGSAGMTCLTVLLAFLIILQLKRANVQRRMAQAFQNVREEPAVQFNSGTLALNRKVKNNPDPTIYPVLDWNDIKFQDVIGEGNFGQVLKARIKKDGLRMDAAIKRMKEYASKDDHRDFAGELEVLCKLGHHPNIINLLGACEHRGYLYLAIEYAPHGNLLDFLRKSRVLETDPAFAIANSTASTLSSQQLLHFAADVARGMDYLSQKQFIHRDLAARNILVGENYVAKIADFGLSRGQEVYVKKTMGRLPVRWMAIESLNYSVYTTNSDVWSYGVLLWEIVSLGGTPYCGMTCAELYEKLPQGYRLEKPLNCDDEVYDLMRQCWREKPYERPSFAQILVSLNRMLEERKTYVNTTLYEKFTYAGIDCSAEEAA
From the text: as §1

ABL1, sequence (P00519 whole entry): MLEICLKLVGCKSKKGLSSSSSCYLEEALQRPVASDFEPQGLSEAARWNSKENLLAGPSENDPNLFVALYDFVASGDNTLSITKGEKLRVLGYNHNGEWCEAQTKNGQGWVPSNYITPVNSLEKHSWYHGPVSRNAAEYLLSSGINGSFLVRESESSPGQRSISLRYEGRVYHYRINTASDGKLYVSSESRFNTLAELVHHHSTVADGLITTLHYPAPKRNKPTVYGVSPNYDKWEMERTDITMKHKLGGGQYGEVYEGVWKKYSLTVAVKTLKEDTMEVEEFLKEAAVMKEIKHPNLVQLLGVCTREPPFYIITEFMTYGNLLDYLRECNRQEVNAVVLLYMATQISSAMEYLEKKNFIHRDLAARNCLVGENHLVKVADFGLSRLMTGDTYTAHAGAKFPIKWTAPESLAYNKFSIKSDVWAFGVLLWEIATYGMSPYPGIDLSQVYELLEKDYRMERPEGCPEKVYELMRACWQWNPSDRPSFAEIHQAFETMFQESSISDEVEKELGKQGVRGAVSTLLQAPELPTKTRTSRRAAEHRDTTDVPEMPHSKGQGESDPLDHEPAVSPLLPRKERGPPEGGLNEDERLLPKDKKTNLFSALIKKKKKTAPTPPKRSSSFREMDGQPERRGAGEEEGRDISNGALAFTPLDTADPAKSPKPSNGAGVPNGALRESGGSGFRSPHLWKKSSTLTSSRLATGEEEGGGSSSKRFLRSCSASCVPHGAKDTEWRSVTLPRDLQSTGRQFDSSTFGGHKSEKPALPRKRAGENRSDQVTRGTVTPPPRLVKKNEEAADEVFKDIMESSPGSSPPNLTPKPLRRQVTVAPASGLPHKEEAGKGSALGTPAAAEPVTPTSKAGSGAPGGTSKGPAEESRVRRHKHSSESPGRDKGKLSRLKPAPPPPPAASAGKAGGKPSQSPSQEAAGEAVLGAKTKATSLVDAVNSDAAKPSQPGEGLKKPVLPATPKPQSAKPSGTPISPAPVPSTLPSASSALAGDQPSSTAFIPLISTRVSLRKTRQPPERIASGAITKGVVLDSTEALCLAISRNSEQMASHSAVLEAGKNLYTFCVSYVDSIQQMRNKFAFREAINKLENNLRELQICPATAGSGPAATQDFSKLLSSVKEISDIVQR
PAK4, sequence (O96013 whole entry): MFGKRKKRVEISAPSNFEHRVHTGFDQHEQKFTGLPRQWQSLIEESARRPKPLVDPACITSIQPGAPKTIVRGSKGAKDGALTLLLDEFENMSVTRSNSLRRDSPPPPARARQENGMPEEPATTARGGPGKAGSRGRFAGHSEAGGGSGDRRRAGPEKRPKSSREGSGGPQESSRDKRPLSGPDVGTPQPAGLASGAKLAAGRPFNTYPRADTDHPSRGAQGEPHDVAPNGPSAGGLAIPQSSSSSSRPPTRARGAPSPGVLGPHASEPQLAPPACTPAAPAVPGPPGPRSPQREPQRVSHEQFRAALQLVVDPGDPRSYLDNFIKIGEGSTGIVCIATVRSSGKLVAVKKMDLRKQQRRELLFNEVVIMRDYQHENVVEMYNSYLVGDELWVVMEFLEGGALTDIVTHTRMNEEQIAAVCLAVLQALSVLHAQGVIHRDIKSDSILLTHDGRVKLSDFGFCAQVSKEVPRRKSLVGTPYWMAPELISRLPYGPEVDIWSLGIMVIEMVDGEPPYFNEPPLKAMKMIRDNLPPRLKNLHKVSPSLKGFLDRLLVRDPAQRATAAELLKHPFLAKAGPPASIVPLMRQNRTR

Consider `C=CCn1c(=O)c2cnc(Nc3ccc(N4CCN(C)CC4)cc3)nc2n1-c1cccc(N=S(C)(C)=O)n1` [Example 5, 1-(6-{[Dimethyl(oxo)-λ^6-sulfanylidene]amino}pyridine-2-yl)-6-{[4-(4-methylpiperazin-1-yl)phenyl]amino}-2-(prop-2-en-1-yl)-1H,2H,3H-pyrazolo[3,4-d]pyrimidin-3-one], for which the “inhibition of ABL1” value at ABL1 is listed as “− (inhibition under 50% (tested at 300-350 nM))”. For the same compound, on ERBB2 (HER2), the “inhibition of ERBB2 (HER2)” value is reported as “− (inhibition under 50% (tested at 300-350 nM))”. In addition, the “inhibition of FRAP1 (mTOR)” value on FRAP1 (mTOR) is given as “− (inhibition under 50% (tested at 300-350 nM))”. In addition, the “inhibition of KDR (VEGFR2)” value against KDR (VEGFR2) is reported as “− (inhibition under 50% (tested at 300-350 nM))”. Also, the “inhibition of LCK” value at LCK is listed as “− (inhibition under 50% (tested at 300-350 nM))”. Besides, the “inhibition of MAPK8 (JNK1)” value against MAPK8 (JNK1) was “− (inhibition under 50% (tested at 300-350 nM))”. The “inhibition of MAPKAPK2” value on MAPKAPK2 was “− (inhibition under 50% (tested at 300-350 nM))”. Besides, the “inhibition of MARK2” value against MARK2 is “− (inhibition under 50% (tested at 300-350 nM))”. Further, the “inhibition of PAK4” value on PAK4 is “− (inhibition under 50% (tested at 300-350 nM))”. Also, on PRKACA (PKA), the “inhibition of PRKACA (PKA)” value is listed as “− (inhibition under 50% (tested at 300-350 nM))”. Also, the “inhibition of ROCK1” value against ROCK1 is listed as “− (inhibition under 50% (tested at 300-350 nM))”. At SRC, the “inhibition of SRC” value is “− (inhibition under 50% (tested at 300-350 nM))”. Besides, on TEK (Tie2), the “inhibition of TEK (Tie2)” value is on record as “− (inhibition under 50% (tested at 300-350 nM))”.
